Reference: publication PMC12645191, “Dicarboxylate and dicarboxylic acid appended supramolecular self-associating amphiphiles as antimicrobial agents against high priority bacterial pathogens” (Organic & Biomolecular Chemistry, 2025)
Converted amounts (≈) assume the structure as drawn. “And” between values parts separate entries of the source, which are not always exact repeats. Equal values may be shown once. Marks after values point to notes of the source that are not given here. One block for each molecule: values may come before it.

Columns and labels:
K. pneumoniae M6 = experiment: inhibition of bacterial growth, OD600 after 20 h; assay type: cell-based, Klebsiella pneumoniae; settings: SSA 5.0 mM, 2.5% ethanol, negative = enhanced growth
Procedure: (§1) With the self-associative properties of 1–10 established, the antimicrobial activity of these SSAs were determined against a panel of clinically relevant, high-priority pathogens including: P. aeruginosa PAO1; Klebsiella pneumonia (K. pneumoniae) M6; E. coli NCTC 12923; Acinetobacter baumannii (A. baumannii) ATCC 17978; S. aureus ATCC 9144; Enterococcus faecalis (E. faecalis) NCTC 775; and Enterococcus faecium (E. faecium) NCTC 12204. […] However, it should be noted that the SSA stock solution was prepared in a H2O 5% EtOH solution, to ensure that the SSA aggregates formed were in line with those characterised within the scope of the SSA self-association studies.
(§2) Section 3: Biological methods
(§3) These methods were taken directly from UK Health and Security Office (UKHSA) standard […]
(§4) Preparation of Luria Broth media (LB): Yeast extract (5.0 g), tryptone (10.0 g) and sodium chloride (10.0 g) were dissolved in dH₂O (1.0 L) then divided into bottles and autoclaved.
(§5) Preparation of Luria Broth (LB) agar plates: Agar (6.0 g) was added to LB (400 mL) and autoclaved. Once cool, the LB agar was poured into sterile petri dishes under sterile conditions and allowed to set. LB plates were stored at 4 °C until use.
(§6) Preparation of bacterial plates: Sterile LB agar plates were streaked using streaked using the desired bacteria i) Pseudomonas aeruginosa (P.aeruginosa) PAO1, ii) Klebsiella pneumoniae (K. pneumoniae) M6 iii) E. coli NCTC 12923 and iv) Acinetobacter baumannii (A. baumannii) ATCC 17978 and Gram-positive i) Staphylococcus aureus (S. aureus) ATCC 9144 ii) Enterococcus faecalis (E. faecalis) NCTC 775 and iii) Enterococcus faecium (E. faecium ) NCTC 12204, then incubated at 37 °C overnight.
(§7) Preparation of Inoculum: An initial culture was made up by inoculating LB media (5 mL) with a single colony of bacteria under sterile conditions and incubated at 37 °C with shaking overnight. The following day, overnight bacterial cultures were subcultured into fresh LB medium to a starting OD600 of 0.01.
(§8) Preparation of 96 well microplate for MIC50: The 1:100 cell suspension (150 µL) was dispensed into individual wells under sterile conditions. SSAs (30 µL) were added to the wells to equal a total volume of 180 µL in the wells. Six repeats of each concentration for each SSA were created each plate. The plates were sealed using parafilm, then incubated at 37 °C in a microplate reader for 20 hours. OD600 endpoint data was used to generate growth curves. […]

E. coli NCTC 12923 = experiment: inhibition of bacterial growth, OD600 after 20 h; assay type: cell-based, Escherichia coli; settings: SSA 5.0 mM, 2.5% ethanol, negative = enhanced growth
Procedure: as §1, §2, §3, §4, §5, §6, §7, §8

[1] = dynamic light scattering (DLS) of SSA aggregates; assay type: physicochemical; settings: 5.6 mM, H2O 5.0% EtOH, 298 K
Procedure: Dynamic light scattering (DLS) and zeta potential measurements in H2O 5.0% EtOH were used to determine the hydrodynamic diameter (dH) and stability of the higher-order SSA aggregates detected by (Q) ^1H NMR spectroscopy at 5.6 mM, Table 1. […] However, we are unable to confidently report a dH for 1 due to the instability of this system, which is supported by a zeta potential value of −26 mV, obtained for this SSA under the same experimental conditions. […] Due to the instability of these systems in the absence of solvent, attempts to further characterise these systems through SEM or AFM are not possible.[48]

A. baumannii ATCC 17978 = experiment: inhibition of bacterial growth, OD600 after 20 h; assay type: cell-based, Acinetobacter baumannii; settings: SSA 5.0 mM, 2.5% ethanol, negative = enhanced growth
Procedure: as §1, §2, §3, §4, §5, §6, §7, §8

[2] = quantitative (Q) 1H NMR spectroscopy, proportion of SSA becoming NMR silent (higher-order aggregates); assay type: physicochemical; settings: for (Q) 1H NMR spectroscopy, proportion NMR silent, acid or anion / (Q) 1H NMR spectroscopy, proportion NMR silent, cation: 5.6 mM, D2O 5.0% EtOH, 298 K; for (Q) 1H NMR, proportion NMR silent, cation: ~112 mM, DMSO-d6 1.0% DCM
Procedure: To confirm the presence of higher order self-associative structures quantitative (Q) ^1H NMR spectroscopy studies were undertaken at 5.6 mM in D2O 5% EtOH. Here the ^1H NMR resonances attributed to the EtOH are used as an internal standard.
Table S1 – Overview of results of the quantitative (Q) 1H NMR studies for 1, 3, 5, 7 and 9
5.0 % EtOH . Values given in % represent the observed proportion of the SSA that has become
Table S2 – Overview of results of the quantitative (Q) 1H NMR studies for 2, 4, 6, 8 and 10
5.0 % EtOH. Values given in % represent the observed proportion of anion and cation that has

E. faecium NCTC 12204 = experiment: inhibition of bacterial growth, OD600 after 20 h; assay type: cell-based, Enterococcus faecium; settings: SSA 5.0 mM, 2.5% ethanol, negative = enhanced growth
Procedure: as §1, §2, §3, §4, §5, §6, §7, §8

P. aeruginosa PAO1 = experiment: inhibition of bacterial growth, OD600 after 20 h; assay type: cell-based, Pseudomonas aeruginosa; settings: SSA 5.0 mM, 2.5% ethanol, negative = enhanced growth
Procedure: as §1, §2, §3, §4, §5, §6, §7, §8

[3] = tensiometry: critical aggregate concentration (CAC) and surface tension; assay type: physicochemical; settings: for Surface tension at CAC: H2O/5.0 % EtOH
Procedure: As the (Q) ^1H NMR spectroscopy experiments conducted at 5.6 mM in a D2O 5.0% EtOH solution confirmed the presence of higher-order self-associated structures with solid-like properties, concentration dependent surface tension measurements, obtained through tensiometry, were used to calculate critical aggregate concentration (CAC). Here the CAC is defined as the point at which an increase in SSA concentration no longer decreases surface tension but instead results in the formation of higher-order self-associated structures.

E. faecalis NCTC 775 = experiment: inhibition of bacterial growth, OD600 after 20 h; assay type: cell-based, Enterococcus faecalis; settings: SSA 5.0 mM, 2.5% ethanol, negative = enhanced growth
Procedure: as §1, §2, §3, §4, §5, §6, §7, §8

S. aureus ATCC 9144 = experiment: inhibition of bacterial growth, OD600 after 20 h; assay type: cell-based, Staphylococcus aureus; settings: SSA 5.0 mM, 2.5% ethanol, negative = enhanced growth
Procedure: as §1, §2, §3, §4, §5, §6, §7, §8

[4] = kinetic solubility determination in PBS pH 7.4; settings: pH 7.4, aqueous buffer, kinetic from dmso stock

DLS Peak 2 maxima ([1]; listed as 8): 3417 nm
Polydispersity index (%) ([1]; listed as 8): 25.6 (± 1.0) %
dH (DLS intensity distribution peak 1 maxima) ([1]; listed as 8): 313 nm
(Q) 1H NMR spectroscopy, proportion NMR silent, acid or anion [2]: 47%
(Q) 1H NMR spectroscopy, proportion NMR silent, cation [2]: 41.8% and 42%
(Q) 1H NMR, proportion NMR silent, cation [2]: 0%
ST at CAC ([3]; H2O 5.0% EtOH, 298 K, listed as 8): 52 mN m^−1
Surface tension at CAC ([3]; listed as 8): 51.98 mN/m
Structure (SMILES): COc1ccc(NC(=O)N[C@@H](CC(=O)O)C(=O)O)cc1 [SSA 8]
Percentage inhibition of bacterial growth, M6 (K. pneumoniae) (K. pneumoniae M6; listed as 8): 9.69% and 10%
Percentage inhibition of bacterial growth, NCTC 12923 (E. coli) (E. coli NCTC 12923; listed as 8): 39.33% and 39%
Percentage inhibition of bacterial growth, ATCC 17978 (A. baumannii) (A. baumannii ATCC 17978; listed as 8): -20.26% and −20%
Percentage inhibition of bacterial growth, NCTC 12204 (E. faecium) (E. faecium NCTC 12204; listed as 8): -1.33% and −1%
Percentage inhibition of bacterial growth, PAO1 (P. aeruginosa) (P. aeruginosa PAO1; listed as 8): 37.24% and 37%
Percentage inhibition of bacterial growth, NCTC 775 (E. faecalis) (E. faecalis NCTC 775; listed as 8): 38.33% and 38%
Percentage inhibition of bacterial growth, ATCC 9144 (S. aureus) (S. aureus ATCC 9144; listed as 8): 96.79% and 97%

DLS Peak 2 maxima ([1]; listed as 6): 5868 nm
Polydispersity index (%) ([1]; listed as 6): 21.5 (± 1.3) %
dH (DLS intensity distribution peak 1 maxima) ([1]; listed as 6): 164 nm
(Q) 1H NMR spectroscopy, proportion NMR silent, acid or anion ([2]; listed as 6): 42%
(Q) 1H NMR spectroscopy, proportion NMR silent, cation ([2]; listed as 6): 41.8% and 42%
(Q) 1H NMR, proportion NMR silent, cation [2]: 0%
ST at the limit of solubility or 100 mM, whichever concentration is lower ([3]; H2O 5.0% EtOH, 298 K): 38 ^d mN m^−1
CAC (footnote in place of a value) ([3]; H2O 5.0% EtOH, 298 K, listed as 6): ^c (CAC is >100 mM)
Surface tension at CAC ([3]; listed as 6): 38.24 mN/m
Structure (SMILES): COc1ccc(NC(=O)N[C@@H](CCC(=O)O)C(=O)O)cc1 [SSA 6]
Percentage inhibition of bacterial growth, M6 (K. pneumoniae) (K. pneumoniae M6; listed as 6): 22.92% and 23%
Percentage inhibition of bacterial growth, NCTC 12923 (E. coli) (E. coli NCTC 12923; listed as 6): 32.77% and 33%
Percentage inhibition of bacterial growth, ATCC 17978 (A. baumannii) (A. baumannii ATCC 17978; listed as 6): -28.50% and −29%
Percentage inhibition of bacterial growth, NCTC 12204 (E. faecium) (E. faecium NCTC 12204; listed as 6): 7.44% and 7%
Percentage inhibition of bacterial growth, PAO1 (P. aeruginosa) (P. aeruginosa PAO1; listed as 6): 29.42% and 29%
Percentage inhibition of bacterial growth, NCTC 775 (E. faecalis) (E. faecalis NCTC 775; listed as 6): 7.71% and 8%
Percentage inhibition of bacterial growth, ATCC 9144 (S. aureus) (S. aureus ATCC 9144; listed as 6): 55.64% and 56%

Structure (SMILES): CC(=O)[C@H]1CC[C@H]2[C@@H]3CCC4=CC(=O)CC[C@]4(C)[C@H]3CC[C@]12C [Progesterone, reference compound]
solubility [4]: 14.5 µM (≈ 4.57 µg/mL)
